Laboratory results as given in patent publication US20260101901A1, “DELAYING BLOOM IN HORTICULTURAL CROPS USING JASMONIC ACID BIOSYNTHESIS INHIBITORS” (VIRGINIA TECH INTELLECTUAL PROPERTIES INC., priority 2022, published 2026).

Assays:
‘Redhaven’ peach = type: in vivo; settings: antipyrine 50 mM, propyl gallate 15 mM, four weekly applications from swollen bud stage
Procedure: (§1) In this study, we investigated the influence of propyl gallate and Antipyrine on the flowering time of ‘Redhaven’ and ‘Sunhigh’ cultivars. Three adjacent trees were randomly chosen, each as a replicate, and subjected to treatments: propyl gallate (15 mM), antipyrine (50 mM), and an untreated control. Four applications of each treatment were administered weekly, commencing at the swollen bud stage, which are concurrent at 2059, 2167, 2356, and 3128 DGH, respectively, employing a hand sprayer with the volume of 2.5 L per tree. Regulaid, a non-ionic surfactant from Kalo Inc. (Overland Park, KS, United States) was mixed with all treatments and experiments at the rate of 250 ppm.
(§2) At the pink-bud stage, three-four branches from each treated and untreated (control) tree were randomly selected across the tree and flagged using colored ribbons. […] The progression of flower opening was recorded by periodically counting the number of open blossoms in each experiment. The number of open flowers (anthers visible) was counted every 1-3 days until all buds reached the full bloom stage (50% of flowers are fully open). The blooming rate at each time point was calculated as the ratio of open blossoms to the initial bud number per tree, and the flowering date (F50) for each treatment was determined when the blooming rate reached 50%. […]

‘Sunhigh’ peach = assay: Exp. 5 (2023) field trial: propyl gallate and antipyrine, flowering time; type: in vivo; settings: antipyrine 50 mM, propyl gallate 15 mM, four weekly applications from swollen bud stage
Procedure: as §1, §2

[1] = system: ginseng, wheat and tea plant (Camellia sinensis); settings: DIECA application; cited from earlier work
‘John Boy’ peach trees [2] = assay: Exp. 1 (2021) field trial: DIECA concentrations sprayed at 1000 GDH, bloom time, fruit set and size; type: in vivo; parameters: Delay of the flowering date (F50) vs control: dose or concentration left out as unconfirmed
‘Redhaven’ peach trees [3] = assay: Exp. 3 (2022) field trial: DIECA concentrations sprayed at 500 GDH, bloom time and fruit set; type: in vivo; settings: for Heat requirements / Flowering (F50) date / Days from endodormancy release to flowering (F50): sprayed at 500 GDH, ‘Redhaven’ 2022; for Flowering (F50) date: control 01 April; for Days from endodormancy release to flowering (F50): control 72 c
Procedure: (§3) The field trials were taken place at the Alson H. Smith Jr. Agricultural Research and Extension Center (AREC), Winchester, VA, the United States (39°06′36.0′N 78°16′48.0′W). Experiments were conducted over two growing seasons (2021 and 2022) on 3-year-old ‘John Boy’ and 10-year-old ‘Redhaven’ peach trees; both are grafted on ‘Lovell’ rootstock.
(§4) Chilling and heat accumulation were computed from meteorological data obtained from each orchard. Data loggers (EasyLog, Lascar) were kept in enclosed wooden shelters 1.2 m above the ground and recorded temperatures at 10 min intervals. Chilling requirements were calculated using the chilling hours (CH) model (Weinberger, 1950), in which each hourly temperatures within the range of 0-7.2° C. were registered as 1 CH, and temperatures outside of this range were not considered. Starting at 500 CH, three one-year-old branches, each with at least 10 floral buds, were collected weekly from each treatment. After removal of the terminal buds, the branches were placed in a beaker containing a floral solution prepared with Floralife (Smithers-Oasis Co., Walterboro, SC, USA). The floral solution was replaced weekly and around 1 cm was trimmed from the basal end of each branch to eliminate potential infections. The branches were kept in a growth chamber with conditions favoring bud growth (photoperiod with fluorescent lamps at 135 μmol·m^−2·s^−1 of 16 h at 25° C., a dark period of 8 h at 20° C., and a constant relative humidity of 65%). The endodormancy release and CRs were considered fulfilled when 50% of the buds have reached the calyx green stage after 14 days in the growth chamber.
(§5) After completion of CR, heat requirements were recorded according to the growing degree hours (GDH) model proposed by Richardson et al. (1975). In this model, hourly temperatures less than 4.5° C. registered no GDH; temperatures in the interval of 4.5-25° C. were adjusted by subtracting 4.5° C., and temperatures greater than 25° C. were registered as 20.5 (25-4.5) GDH. Heat requirements (HR) were calculated as the GDH accumulated from the date of endodormancy release (under growth chambers conditions) to the date 50% of buds were in full bloom, F50 (under field conditions).
In this trial, we used peach ‘Redhaven’ trees to examine the effects of three different concentrations (12.5, 25 and 50 mM) of DIECA on blooming time. Three adjacent trees were assigned for each treatment. All treated and untreated (control) trees were distributed in the orchard according to the CRD experimental design. DIECA treatments were applied at 500 GDH at a spray volume of 1.8 L per tree, using a high-pressure tree sprayer.
(§6) At the pink-bud stage, three-four branches from each treated and untreated (control) tree were randomly selected across the tree and flagged using colored ribbons. The number of buds on selected branches (at least 80 bud/tree) was used as the initial bud count. The progression of flower opening was recorded by periodically counting the number of open blossoms in each experiment. The number of open flowers (anthers visible) was counted every 1-3 days until all buds reached the full bloom stage (50% of flowers are fully open). The blooming rate at each time point was calculated as the ratio of open blossoms to the initial bud number per tree, and the flowering date (F50) for each treatment was determined when the blooming rate reached 50%. The numbers of fruit on the marked branches were counted 2 and 4 and 8 weeks after full bloom. Percent fruit set was calculated as the number of fruits divided by the number of flowers times 100.

‘John Boy’ peach trees [4] = assay: Exp. 1 (2021) field trial: DIECA concentrations sprayed at 1000 GDH, bloom time, fruit set and size; type: in vivo; settings: for Heat requirements / Flowering (F50) date / Days from endodormancy release to flowering (F50): sprayed at 1000 GDH, ‘John Boy’ 2021; for Flowering (F50) date: control 06 April; for Days from endodormancy release to flowering (F50): control 69 b
Procedure: as §3, §4, §5
This trial was conducted on ‘John Boy’ peach trees. Three different concentrations (0.5 mM, 10 mM, and 25 mM) of DIECA (Sigma-Aldrich Co., St Louis, MO, USA) were sprayed on three groups of trees, each group is composed of three adjacent trees. Treatments and control (untreated) trees were arranged in a completely randomized design (CRD). At least one buffer tree was assigned between each treatment to avoid spray drift. Trees were sprayed on 3 Mar. 2021 at 1000 GDH at a spray volume of 0.3 L per tree, using a hand sprayer. Regulaid (250 ppm), a non-ionic surfactant from Kalo Inc. (Overland Park, KS, United States) was mixed with all treatments and experiments at the rate of 250 ppm.
as §6

‘John Boy’ peach trees [5] = assay: Exp. 4 (2022) field trial: late DIECA application at 2000 GDH, bloom time and fruit set; type: in vivo; settings: DIECA 50 mM at 2000 GDH
Procedure: as §3
(§7) Chilling and heat accumulation were computed from meteorological data obtained from each orchard. Data loggers (EasyLog, Lascar) were kept in enclosed wooden shelters 1.2 m above the ground and recorded temperatures at 10 min intervals. Chilling requirements were calculated using the chilling hours (CH) model (Weinberger, 1950), in which each hourly temperatures within the range of 0-7.2° C. were registered as 1 CH, and temperatures outside of this range were not considered. Starting at 500 CH, three one-year-old branches, each with at least 10 floral buds, were collected weekly from each treatment. […]
(§8) After completion of CR, heat requirements were recorded according to the growing degree hours (GDH) model proposed by Richardson et al. (1975). […] Heat requirements (HR) were calculated as the GDH accumulated from the date of endodormancy release (under growth chambers conditions) to the date 50% of buds were in full bloom, F50 (under field conditions). […]

‘Redhaven’ peach trees [6] = assay: Exp. 2 (2021) field trial: DIECA application timing, bloom time; type: in vivo; settings: DIECA 10 mM applied at 1000 GDH
Procedure: as §3, §7, §8

[7] = system: peach and other stone fruits; settings: cited from earlier work

Cc1cc(=O)n(-c2ccccc2)n1C [Antipyrine, antipyrine]
Bloom delay compared to the control (‘Redhaven’ peach): two | Bloom delay compared to the control (‘Sunhigh’ peach): four

CCN(CC)C(=S)[S-].[Na+] [DIECA, sodium diethyldithiocarbamate]
JA levels [1]: substantially reduce JA levels | Delay of the flowering date (F50) vs control (‘John Boy’ peach trees [2]; DIECA, 1000 GDH, ‘John Boy’): three | Heat requirements (‘Redhaven’ peach trees [3]; DIECA 12.5 mM): 6090 GDH | Flowering (F50) date (‘Redhaven’ peach trees [3]; DIECA 12.5 mM): 04 April | Days from endodormancy release to flowering (F50) (‘Redhaven’ peach trees [3]; DIECA 12.5 mM): 75 bc days | Delay in bloom time compared to the untreated control (‘Redhaven’ peach trees [3]; DIECA 25 mM at 500 GDH): 3 days | Heat requirements (‘Redhaven’ peach trees [3]; DIECA 25 mM): 6090 GDH | Flowering (F50) date (‘Redhaven’ peach trees [3]; DIECA 25 mM): 04 April | Days from endodormancy release to flowering (F50) (‘Redhaven’ peach trees [3]; DIECA 25 mM): 75 b days | Delay in bloom time compared to the untreated control (‘Redhaven’ peach trees [3]; DIECA 50 mM at 500 GDH): 6 days | Heat requirements (‘Redhaven’ peach trees [3]; DIECA 50 mM): 6478 GDH | Flowering (F50) date (‘Redhaven’ peach trees [3]; DIECA 50 mM): 07 April | Days from endodormancy release to flowering (F50) (‘Redhaven’ peach trees [3]; DIECA 50 mM): 78 a days | Bloom delay (‘Redhaven’ peach trees [3]; all DIECA applications (12.5, 25, 50 mM) at 500 GDH): remarkable bloom delay | Bloom delay in peach (‘Redhaven’ peach trees [3]; high DIECA concentrations (>25 mM) at early ecodormancy (~500 GDH)): 3 to 6 days | Heat requirements (‘John Boy’ peach trees [4]; DIECA 0.5 mM): 5373 GDH | Flowering (F50) date (‘John Boy’ peach trees [4]; DIECA 0.5 mM): 06 April | Days from endodormancy release to flowering (F50) (‘John Boy’ peach trees [4]; DIECA 0.5 mM): 69 b days | Heat requirements (‘John Boy’ peach trees [4]; DIECA 10 mM): 5539 GDH | Flowering (F50) date (‘John Boy’ peach trees [4]; DIECA 10 mM): 07 April | Days from endodormancy release to flowering (F50) (‘John Boy’ peach trees [4]; DIECA 10 mM): 70 b days | Delay in the blooming (‘John Boy’ peach trees [4]; DIECA 25 mM (highest concentration), 1000 GDH, ‘John Boy’): significant delay in the blooming | Heat requirements (‘John Boy’ peach trees [4]; DIECA 25 mM): 6048 GDH | Flowering (F50) date (‘John Boy’ peach trees [4]; DIECA 25 mM): 08 April | Days from endodormancy release to flowering (F50) (‘John Boy’ peach trees [4]; DIECA 25 mM): 72 a days | Flowering time vs control (‘John Boy’ peach trees [5]): No significant differences | Bloom progression compared to the control (‘Redhaven’ peach trees [6]): slightly delayed bloom progression | Bloom-delaying effect (‘Redhaven’ peach trees [6]; 2000 GDH or 1000+2000 GDH): None of the DIECA application timings showed a significant bloom-delaying effect

CCN(CC)C(=S)[S][Na] [DIECA, sodium diethyldithiocarbamate]
Fruit set (%) vs control (‘John Boy’ peach trees [2]; DIECA 0.5, 10, 25 mM, 3 and 6 WAFB): No significant differences | Fruit set (%) vs control (‘Redhaven’ peach trees [3]; DIECA 12.5, 25, 50 mM at 500 GDH, 2 and 4 WAFB): did not show significant differences | Fruit size vs control (‘John Boy’ peach trees [4]; DIECA 0.5, 10, 25 mM, 6 WAFB): No significant differences | Fruit set (%) vs control (‘John Boy’ peach trees [5]; 2 and 4 WAFB): no significant differences

O=P(O)(O)CCCl [ET, 2-chloroethylphosphonic acid]
Detrimental effects ([7]; high concentration application): gummosis, abortion of floral buds and dieback of the branches | Bloom delay ([7]; high concentration, applied in the fall): more than two weeks

CCCOC(=O)c1cc(O)c(O)c(O)c1 [propyl gallate, n-propyl gallate]
Bloom delay compared to the control (‘Redhaven’ peach): no significant impact | Bloom delay compared to the control (‘Sunhigh’ peach): single
